Toxic doses and inconclusive results are not listed. Rule as the data show it: active = T/C of 150% or more; inactive = T/C below 125%.
Test system: L1210 leukemia ip in BDF1 mice, survival T/C
Assay: NCI In Vivo Anticancer Drug Screen. Data for tumor model L1210 Leukemia (intraperitoneal) in B6D2F1 (BDF1) mice
Conditions: higher = longer survival
In short: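 Mice bearing the transplanted tumor received compound or vehicle. Survival of the treated group was divided by that of the vehicle-treated control group to give the ratio.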

[1] = endpoint: mean survival time, dose: 100.0 mg/kg/injection, schedule: Q01DX009 (ip), vehicle: Klucel (hydroxypropylcellulose) (HPC)
[2] = endpoint: mean survival time, dose: 100.0 mg/kg/injection, schedule: Q04DX003 (ip), vehicle: Klucel (hydroxypropylcellulose) (HPC)
[3] = endpoint: mean survival time, dose: 200.0 mg/kg/injection, schedule: Q01DX009 (ip), vehicle: Klucel (hydroxypropylcellulose) (HPC)
[4] = endpoint: mean survival time, dose: 200.0 mg/kg/injection, schedule: Q04DX003 (ip), vehicle: Klucel (hydroxypropylcellulose) (HPC)
[5] = endpoint: mean survival time, dose: 400.0 mg/kg/injection, schedule: Q01DX009 (ip), vehicle: Klucel (hydroxypropylcellulose) (HPC)
[6] = endpoint: mean survival time, dose: 400.0 mg/kg/injection, schedule: Q04DX003 (ip), vehicle: Klucel (hydroxypropylcellulose) (HPC)
[7] = endpoint: mean survival time, dose: 100.0 mg/kg/injection, schedule: Q04DX003 (ip), vehicle: saline with Tween-80
[8] = endpoint: mean survival time, dose: 200.0 mg/kg/injection, schedule: Q04DX003 (ip), vehicle: saline with Tween-80
[9] = endpoint: mean survival time, dose: 400.0 mg/kg/injection, schedule: Q04DX003 (ip), vehicle: saline with Tween-80
[10] = endpoint: mean survival time, dose: 75.0 mg/kg/injection, schedule: Q01DX001 (ip), vehicle: saline
[11] = endpoint: mean survival time, dose: 150.0 mg/kg/injection, schedule: Q01DX001 (ip), vehicle: saline
[12] = endpoint: mean survival time, dose: 300.0 mg/kg/injection, schedule: Q01DX001 (ip), vehicle: saline
[13] = endpoint: mean survival time, dose: 100.0 mg/kg/injection, schedule: Q01DX001 (ip), vehicle: saline with Tween-80
[14] = endpoint: mean survival time, dose: 200.0 mg/kg/injection, schedule: Q01DX001 (ip), vehicle: saline with Tween-80
[15] = endpoint: mean survival time, dose: 400.0 mg/kg/injection, schedule: Q01DX001 (ip), vehicle: saline with Tween-80

Measured: T/C

CS(=O)(=O)OCC1OC(c2ccccc2)OC(C(CBr)OS(C)(=O)=O)C1OS(C)(=O)=O (stereo not drawn)
inactive: endpoint: mean survival time, dose: 100.0 mg/kg/injection, schedule: Q04DX002 (ip), vehicle: Klucel (hydroxypropylcellulose) (HPC) 97 % of control | endpoint: mean survival time, dose: 200.0 mg/kg/injection, schedule: Q04DX002 (ip), vehicle: Klucel (hydroxypropylcellulose) (HPC) 93 % of control | endpoint: mean survival time, dose: 400.0 mg/kg/injection, schedule: Q04DX002 (ip), vehicle: Klucel (hydroxypropylcellulose) (HPC) 93 % of control

CCCCCCCCCC(O)CCC (stereo not drawn)
inactive: [1] 103 % of control | [2] 96 % of control | [3] 109 % of control | [4] 91 % of control | [5] 103 % of control | [6] 89 % of control

N=C(OCCCO)C(=N)OCCCO
inactive: [7] 115 % of control | [8] 102 % of control | [9] 96 % of control

CC(C)CCC[C@@H](C)[C@H]1CC[C@H]2[C@@H]3CC=C4C(C)(C)C(=O)CC[C@]4(C)[C@H]3CC[C@]12C
inactive: endpoint: mean survival time, dose: 100.0 mg/kg/injection, schedule: Q01DX001 (sc), vehicle: steriod suspending solution 97 % of control | endpoint: mean survival time, dose: 200.0 mg/kg/injection, schedule: Q01DX001 (sc), vehicle: steriod suspending solution 98 % of control | endpoint: mean survival time, dose: 400.0 mg/kg/injection, schedule: Q01DX001 (sc), vehicle: steriod suspending solution 97 % of control

C=CCSc1nc2c(=O)[nH]cnc2n1C1OC(CO)C(O)C1O (stereo not drawn)
inactive: endpoint: mean survival time, dose: 100.0 mg/kg/injection, schedule: Q01DX005 (ip), vehicle: saline 98 % of control | endpoint: mean survival time, dose: 200.0 mg/kg/injection, schedule: Q01DX005 (ip), vehicle: saline 101 % of control

CN(C)c1ccc(/C=C/c2cnccn2)cc1
inactive: endpoint: mean survival time, dose: 25.0 mg/kg/injection, schedule: Q01DX009 (ip), vehicle: Klucel (hydroxypropylcellulose) (HPC) 107 % of control | [2] 94 % of control | [4] 93 % of control

OC(/C=C/c1ccccc1)(c1ccccc1)c1ccccc1
inactive: [2] 94 % of control | [4] 93 % of control | [6] 96 % of control

CCOC(=O)c1ccnc2ccc(O)cc12
inactive: [7] 104 % of control | [8] 96 % of control | [9] 95 % of control

CCCCCCCCCCCCCCCCOc1ccccc1/C=N/O
inactive: [7] 94 % of control | [8] 95 % of control | [9] 90 % of control

CC(O)(C#N)C(F)(F)F (stereo not drawn)
inactive: [10] 102 % of control | [11] 91 % of control | [12] 105 % of control

CCC(C(=O)c1ccc(Cl)cc1)C(O)(C(F)(F)F)C(F)(F)F (stereo not drawn)
inactive: endpoint: mean survival time, dose: 100.0 mg/kg/injection, schedule: Q01DX001 (ip), vehicle: Klucel (hydroxypropylcellulose) (HPC) 95 % of control | [2] 102 % of control | endpoint: mean survival time, dose: 200.0 mg/kg/injection, schedule: Q01DX001 (ip), vehicle: Klucel (hydroxypropylcellulose) (HPC) 98 % of control | [4] 98 % of control | endpoint: mean survival time, dose: 400.0 mg/kg/injection, schedule: Q01DX001 (ip), vehicle: Klucel (hydroxypropylcellulose) (HPC) 112 % of control | [6] 93 % of control

O=C(OCC(O)C1OC(COC(=O)c2ccccc2)C1O)c1ccccc1 (stereo not drawn)
inactive: [13] 101 % of control | [14] 97 % of control | [15] 97 % of control

CCOC(=O)/C=C\n1c(=O)cc(C)c2ccccc21
inactive: [1] 98 % of control | [2] 89 % of control | [3] 108 % of control | [4] 92 % of control | [5] 108 % of control | [6] 87 % of control

CCOC(=O)C(O)C(C#N)c1ccccc1 (stereo not drawn)
inactive: endpoint: mean survival time, dose: 100.0 mg/kg/injection, schedule: Q01DX009 (ip), vehicle: other 94 % of control | endpoint: mean survival time, dose: 100.0 mg/kg/injection, schedule: Q04DX003 (ip), vehicle: other 118 % of control | endpoint: mean survival time, dose: 200.0 mg/kg/injection, schedule: Q01DX009 (ip), vehicle: other 106 % of control | endpoint: mean survival time, dose: 200.0 mg/kg/injection, schedule: Q04DX003 (ip), vehicle: other 101 % of control | endpoint: mean survival time, dose: 400.0 mg/kg/injection, schedule: Q01DX009 (ip), vehicle: other 95 % of control | endpoint: mean survival time, dose: 400.0 mg/kg/injection, schedule: Q04DX003 (ip), vehicle: other 105 % of control

Nc1ccn(C2OC(CO)C(OP(=O)(O)O)C2O)c(=O)n1 (stereo not drawn)
inactive: endpoint: mean survival time, dose: 40.0 mg/kg/injection, schedule: Q01DX001 (ip), vehicle: water 102 % of control | endpoint: mean survival time, dose: 80.0 mg/kg/injection, schedule: Q01DX001 (ip), vehicle: water 97 % of control

O=[N+]([O-])c1cc([N+](=O)[O-])c(/C=C/c2cccc(OCc3ccccc3)c2)cc1/C=C/c1cccc(OCc2ccccc2)c1
inactive: [10] 91 % of control | [11] 89 % of control | [12] 91 % of control

O=[P+](O)C(O)c1ccccc1 (stereo not drawn)
inactive: endpoint: mean survival time, dose: 100.0 mg/kg/injection, schedule: Q01DX009 (ip), vehicle: saline 95 % of control | endpoint: mean survival time, dose: 200.0 mg/kg/injection, schedule: Q01DX009 (ip), vehicle: saline 95 % of control | endpoint: mean survival time, dose: 400.0 mg/kg/injection, schedule: Q01DX009 (ip), vehicle: saline 95 % of control

CCCCCCCCCCCCCCCCSc1ccc(Br)cc1
inactive: [7] 92 % of control | [8] 102 % of control | [9] 97 % of control

CCOC(=O)c1cnc(SC)nc1NCc1ccccc1Cl
inactive: [1] 102 % of control | [2] 106 % of control | [3] 97 % of control | [4] 105 % of control | [5] 97 % of control | [6] 95 % of control

CN(C)c1ccc(C(N)=O)cn1
inactive: endpoint: mean survival time, dose: 16.5 mg/kg/injection, schedule: Q01DX009 (ip), vehicle: saline with Tween-80 102 % of control | endpoint: mean survival time, dose: 29.0 mg/kg/injection, schedule: Q04DX003 (ip), vehicle: saline 112 % of control | endpoint: mean survival time, dose: 45.0 mg/kg/injection, schedule: Q04DX003 (ip), vehicle: saline 120 % of control | endpoint: mean survival time, dose: 66.0 mg/kg/injection, schedule: Q04DX003 (ip), vehicle: saline 113 % of control | endpoint: mean survival time, dose: 100.0 mg/kg/injection, schedule: Q04DX003 (ip), vehicle: saline 114 % of control | endpoint: mean survival time, dose: 200.0 mg/kg/injection, schedule: Q04DX003 (ip), vehicle: saline 102 % of control

CC(S)c1ccc2c(c1)Cc1ccccc1-2 (stereo not drawn)
inactive: endpoint: mean survival time, dose: 100.0 mg/kg/injection, schedule: Q01DX001 (ip), vehicle: carboxymethylcellulose (CMC) 101 % of control | endpoint: mean survival time, dose: 200.0 mg/kg/injection, schedule: Q01DX001 (ip), vehicle: carboxymethylcellulose (CMC) 101 % of control | endpoint: mean survival time, dose: 400.0 mg/kg/injection, schedule: Q01DX001 (ip), vehicle: carboxymethylcellulose (CMC) 104 % of control

COC1CCC2C(C1)C(=O)CC1c3[nH]c4ccccc4c3CCN12 (stereo not drawn)
inactive: [13] 100 % of control | [14] 101 % of control | [15] 99 % of control

OC1OC2COC(c3ccccc3)OC2C(O)C1O (stereo not drawn)
inactive: endpoint: median survival time, dose: 25.0 mg/kg/injection, schedule: Q01DX009 (ip), vehicle: water 106 % of control | endpoint: median survival time, dose: 50.0 mg/kg/injection, schedule: Q01DX009 (ip), vehicle: water 106 % of control | endpoint: median survival time, dose: 100.0 mg/kg/injection, schedule: Q01DX009 (ip), vehicle: water 97 % of control | endpoint: median survival time, dose: 200.0 mg/kg/injection, schedule: Q01DX009 (ip), vehicle: water 100 % of control | endpoint: median survival time, dose: 400.0 mg/kg/injection, schedule: Q01DX009 (ip), vehicle: water 101 % of control | endpoint: median survival time, dose: 800.0 mg/kg/injection, schedule: Q01DX009 (ip), vehicle: water 96 % of control

Source: PubChem BioAssay AID248 (DTP/NCI, 2004)
